Data on 41 compounds can be found in article PMC11249646, “Small-Molecule Disruptors of the Interaction between Calcium- and Integrin-Binding Protein 1 and Integrin αIIbβ3 as Novel Antiplatelet Agents” (ACS Pharmacology & Translational Science, 2024).

Like-named read-outs stand apart in the source and are kept apart here.

By IC50 is commonly meant the concentration that inhibits the measured activity by half.

This assay concerns the target T1, CIB1 and αIIb interaction (CIB1-GST : F-αIIb peptide) (Homo sapiens, UniProt Q99828).
T1 construct: made in house; host or cells: BL-21 plus RIL cells (E. coli)
T1 sequence (Q99828 1-191): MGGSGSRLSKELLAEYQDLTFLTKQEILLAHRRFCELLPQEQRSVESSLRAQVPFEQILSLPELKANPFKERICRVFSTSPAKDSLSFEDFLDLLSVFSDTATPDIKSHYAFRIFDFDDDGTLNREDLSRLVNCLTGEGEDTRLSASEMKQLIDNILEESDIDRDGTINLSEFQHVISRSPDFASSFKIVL
Nature of the assay: FP assay, 1536-well qHTS format (primary and confirmatory screen). The class given is binding. As to conditions: for Efficacy (%): negative = inhibition; for Curve Class: negative sign = inhibitory curve; for IC50: read-out: IC50. (Quantitative high-throughput screening tests each substance at several concentrations.)

[1] abbreviates: qHTS primary screen of LOPAC/NPACT libraries.
Where [2] appears, read: qHTS primary screen hits, Table S2.
The mark [3] stands for this setting: qHTS primary screen hits, Table S2, several classes where COUNT > 1.

In the case of `C=CCc1ccccc1OCC(O)CN[C@]1(C)CCC[C@H](C(C)(C)NC(=O)CBr)C1` (stereo partly shown) [NCGC00162095-02], under setting [1], the “Efficacy (%)” value was -35%, the “Curve Class” value is listed as -2.4 and the IC50 amounted to 56.2 µM.
On the same counts, the results for `NC(=O)c1cc[n+](CC2=C(C(=O)O)N3C(=O)[C@@H](NC(=O)[C@@H](c4ccccc4)S(=O)(=O)[O-])[C@H]3SC2)cc1` [NCGC00162106-03] are -20%, -2.2 and 50.1 µM.
Consider `CO/N=C(\C(=O)N[C@@H]1C(=O)N2C(C(=O)O)=C(CSc3nc(=O)c(O)nn3C)CSC12)c1csc(N)n1` (stereo partly shown) [NCGC00162111-02], for which, under setting [1], the “Efficacy (%)” value is given as -18%, the “Curve Class” value is listed as -1.2 and the IC50 turned out to be 20 µM.
For `CC(C)c1cc(F)cc2c1C[C@](CCN(C)CCCc1nc3ccccc3[nH]1)(OC(=O)C1CC1)CC2` [NCGC00162214-02] the same measures were -30%, -2.2 and 56.2 µM.
In the case of `OCC1O[C@H]([S-])[C@H](O)[C@@H](O)[C@@H]1O.[Au+]` (stereo partly shown) [NCGC00162223-02], under setting [1], the “Efficacy (%)” value is reported as -26%, the “Curve Class” value is -3 and the IC50 came to 89.1 µM.
For `CCCCCN(CCCCC)C(=O)C(CCC(=O)O)NC(=O)c1ccc(Cl)c(Cl)c1` (stereo not shown) [NCGC00162232-03] the same measures were -19%, -2.2 and 44.7 µM.
For `CC(C)c1ccc2c(c1)c(SC(C)(C)C)c(CC(C)(C)C(=O)O)n2Cc1ccc(Cl)cc1` [NCGC00162249-03], under setting [1], the “Efficacy (%)” value was -29%, the “Curve Class” value is listed as -1.4 and the IC50 turned out to be 15.8 µM.
With `CCn1cc(C(=O)O)c(=O)c2ccc(C)nc21` [NCGC00162271-02], under setting [1], the “Efficacy (%)” value was -10%, the “Curve Class” value is listed as -1.4 and the IC50 came out at 8.9 µM.
As for `N.N.N.N.N.N.N.N.N.N.N.N.N.N.O.O.[Ru].[Ru].[Ru]` [NCGC00162333-02], under setting [1], the “Efficacy (%)” value is recorded as -26%, the “Curve Class” value is reported as -2.2 and the IC50 was 56.2 µM.
For `CCCCCCCCOc1ccccc1C(=O)Nc1ccc(C(=O)OCC[N+](C)(CC)CC)cc1.[Br-]` [NCGC00163507-03], for the setting “qHTS FP screen hits, Table S2”, the “Efficacy (%)” value was -39% and the IC50 worked out at 22.4 µM. The “Curve Class” value (qHTS FP screen hits, Table S2, one class per curve where COUNT > 1) is -1.2.
Turning to `CN(C)CC1CCn2c(c(C3=C(c4cn(C)c5ccccc45)C(=O)NC3=O)c3ccccc32)C1.Cl` (stereo not shown) [NCGC00163696-04], under setting [1], the “Efficacy (%)” value is on record as -28%, the “Curve Class” value is on record as -2.4 and the IC50 is 56.2 µM.
With `CS(=O)(=O)c1ccc(C(=O)C2C(=O)CCCC2=O)c([N+](=O)[O-])c1` [NCGC00163843-03], under setting [2], the “Efficacy (%)” value was -30% and the 50% inhibitory concentration (IC50) was found to be 126 µM. The “Curve Class” value under setting [3] was -2.4.
With `CCCCCCCCCCCC[N+](C)(C)Cc1ccccc1.[Cl-]` [NCGC00164245-03], under setting [2], the “Efficacy (%)” value is listed as -38%, the “Curve Class” value is listed as -2.2 and the IC50 was determined as 50.1 µM.
For `Cc1ccc(O)c2ncccc12` [NCGC00164506-02] the same measures were -50%, -2.2 and 44.7 µM.
For the compound `C[C@]12CC[C@@H]3c4ccc(OC(=O)N(CCCl)CCCl)cc4CC[C@H]3[C@@H]1CC[C@@H]2O` [NCGC00164581-02], under setting [2], the “Efficacy (%)” value is reported as -41% and the IC50 amounted to 50.1 µM. Moreover, the “Curve Class” value under setting [3] is on record as -2.2.
For `CC(C)=CCC1C(=O)N(c2ccccc2)N(c2ccccc2)C1=O` [NCGC00164582-02] the same measures were -28%, 50.1 µM and -2.4.
For the compound `COc1cc(/C=C(\C#N)C(=O)Nc2nnc(C(F)(F)F)s2)ccc1OCc1ccc(C(F)(F)F)cc1C(F)(F)F` [NCGC00165952-02], under setting [1], the “Efficacy (%)” value is given as -19%, the “Curve Class” value is given as -1.4 and the IC50 came out at 5.6 µM.
As for `OCCCc1ccccc1` [NCGC00165987-03], under setting [2], the “Efficacy (%)” value was -35% and the IC50 was 56.2 µM. Besides, under setting [3], the “Curve Class” value is listed as -2.2.
Turning to `O=C(O)c1ccccn1` [NCGC00165993-02], under setting [2], the “Efficacy (%)” value was -21%, the “Curve Class” value is recorded as -2.4 and the half-maximal inhibitory concentration (IC50) is 44.7 µM.
Take `CCCCCCCCCCCCCCCC[N+](C)(C)CC.[Br-]` [NCGC00166120-02]: under setting [2], the “Efficacy (%)” value is on record as -45% and the IC50 turned out to be 89.1 µM. Moreover, under setting [3], the “Curve Class” value is -3.
For `Cl.Nc1ccc2cc3ccc(N)cc3nc2c1.Nc1ccc2cc3ccc(N)cc3nc2c1.O=S(=O)(O)O` [NCGC00166245-04], under setting [2], the “Efficacy (%)” value is listed as -130% and the IC50 was found to be 2.2 µM. The “Curve Class” value under setting [3] was -1.1.
For `CC[C@]1(O)CC[C@H]2[C@@H]3CCC4=CCCC[C@@H]4[C@H]3CC[C@@]21C` [NCGC00167514-02] the same measures were -100%, 31.6 µM and -1.1.
With `COc1ccc2[nH]c([S+]([O-])Cc3ncc(C)c(OC)c3C)nc2n1` (stereo not shown) [NCGC00167521-02], under “qHTS FP screen hits, Table S2”, the “Efficacy (%)” value was -34% and the IC50 was found to be 47.4 µM.
In the case of `Nc1ccncc1N` [NCGC00167560-02], under setting [2], the “Efficacy (%)” value is listed as -26% and the IC50 turned out to be 79.4 µM. Further, under setting [3], the “Curve Class” value is listed as -2.4.
For `CCN(CC)CCCN(c1ccccc1)C1Cc2ccccc2C1.Cl` [NCGC00167576-02] the same measures were -57%, 89.1 µM and -3.
For `COc1cc(SC)ccc1C(=O)N1CCC(Cc2ccccc2)CC1` [NCGC00167816-02], under setting [1], the “Efficacy (%)” value is given as -11%, the “Curve Class” value is reported as -1.4 and the IC50 is 3.2 µM.
For the compound `CN1CCN(c2ccc(Nc3c4ccccc4nc4ccccc34)cc2)CC1.O=C(O)C(F)(F)F` [NCGC00167823-03], under setting [2], the “Efficacy (%)” value is given as -25% and the IC50 amounted to 56.2 µM. The “Curve Class” value under setting [3] was -2.4.
`COc1cccc2c1C(=O)c1c(O)c3c(c(O)c1C2=O)C[C@@](O)(C(=O)CO)C[C@@H]3O[C@H]1C[C@H](N)[C@H](O[C@@H]2CCCCO2)[C@H](C)O1` [NCGC00167982-02]: under setting [2], the “Efficacy (%)” value was -42% and the IC50 is 7.7 µM.
With `O=C(O)C1NCc2[nH]cnc2C1c1ccccc1` (stereo not shown) [NCGC00167998-01], under setting [2], the “Efficacy (%)” value is given as -28%, the “Curve Class” value is reported as -2.4 and the IC50 is 50.1 µM.
On the same counts, the results for `CCN(CC)C(=O)[C@@H]1C=C2c3cccc4[nH]cc(c34)C[C@H]2N(C)C1` [NCGC00168265-02] are -141%, -1.1 and 63.1 µM.
As to `C=C1C(=O)O[C@H]2C3=C(C)CCC[C@]3(C)C(=O)C[C@@H]12` [NCGC00168931-02], under setting [1], the “Efficacy (%)” value is given as -27%, the “Curve Class” value is -2.4 and the IC50 worked out at 56.2 µM.
For the compound `O=C1OCc2cc3cccc(O[C@@H]4O[C@H](CO)[C@@H](O)[C@H](O)[C@H]4O)c3c(O)c21` [NCGC00169010-02], under setting [1], the “Efficacy (%)” value was -30%, the “Curve Class” value is -2.4 and the IC50 amounted to 22.4 µM.
For `CC(C)=CCc1ccc(Oc2c(O)cc(C)cc2CO)c(C(=O)O)c1O` [NCGC00169025-02] the same measures were -26%, -2.4 and 44.7 µM.
Regarding `C=C1C(=O)O[C@H]2[C@H]1[C@@H](OC(=O)C(C)CO)C[C@@]1(C)[C@H](O)CCC(=O)[C@H]21` (stereo partly shown) [NCGC00169369-02], under setting [1], the “Efficacy (%)” value is recorded as -20%, the “Curve Class” value is recorded as -1.4 and the IC50 came to 22.4 µM.
With `C=CC/C=C\C/C=C\CCCCCCCc1cccc(O)c1C(=O)O` [NCGC00169660-02], under setting [1], the “Efficacy (%)” value is -27%, the “Curve Class” value is on record as -1.4 and the IC50 amounted to 25.1 µM.
Turning to `CC1CCCC[C@H]2C(=O)C=C[C@H](O)[C@@H]2CC(=O)O1` (stereo partly shown) [NCGC00169882-02], under setting [2], the “Efficacy (%)” value was -82%, the “Curve Class” value is listed as -1.2 and the IC50 came to 28.2 µM.
For the compound `Cl.Cl.O=C(O)c1cn(-c2ccc(F)cc2)c2cc(N3CCNCC3)c(F)cc2c1=O` [NCGC00177995-02], under setting [2], the “Efficacy (%)” value is listed as -41% and the IC50 amounted to 39.8 µM. The “Curve Class” value under setting [3] was -3.
As to `O.O=C(O)[C@@H]1[C@H]2C[C@H]3c4[nH]c5ccccc5c4CCN3C[C@@H]2CC[C@@H]1O` [NCGC00178432-05], under setting [2], the “Efficacy (%)” value is reported as -32% and the IC50 was determined as 44.7 µM. Moreover, the “Curve Class” value under setting [3] is on record as -2.4.
In the case of `C[n+]1c2cc(N)ccc2cc2ccc(N)cc21` [NCGC00178831-03], under setting [2], the “Efficacy (%)” value was -101%, the “Curve Class” value is reported as -1.3 and the half-inhibitory concentration (IC50) was found to be 1.1 µM.
In the case of `C=C1c2cccc(O)c2C(O)=C2C(=O)[C@]3(O)C(O)=C(C(N)=O)C(=O)[C@@H](N(C)C)[C@@H]3[C@@H](O)[C@H]12.Cl` [NCGC00179358-04], under setting [2], the “Efficacy (%)” value was -53% and the IC50 stood at 56.2 µM. Further, under setting [3], the “Curve Class” value was -2.4.
On to `CC(C)NC[C@@H](O)c1ccc(O)c(O)c1` [NCGC00179436-02], for which, under setting [1], the “Efficacy (%)” value is reported as -24%, the “Curve Class” value is on record as -2.2 and the IC50 was 50.1 µM.
